Patent US20250145645A1, “BORON CARRYING AGENT, PREPARATION METHOD AND PHARMACEUTICAL FORMULATION THEREOF” (Peking University, priority 2021, published 2025)
One block for each molecule: values may come before it.

Assays:
[1] = tested on: rat cerebral 9L gliosarcoma; details: cited from earlier work
[2] = tested on: cerebral glioma HS683 cells; experiment: Boron uptake in cells, B content by ICP-AES; type: cell-based; details: 12 hours, FIG. 3
glioma cell line U251 = experiment: Boron uptake in cells, B content by ICP-AES; type: cell-based
Experimental: (§1) Compound I was formulated into aqueous solutions of 0.1 mg/g. 0.2 mg/g. 0.4 mg/g. 0.6 mg/g and 0.8 mg/g, added to U87MG, U251, A549 and A375 cell lines cultured in 25T petri dishes, respectively, and incubated in a thermostatic incubator for 12 hours. Subsequently, the cells and culture medium were separated, and the number of cells was determined. After the cells were digested with concentrated nitric acid, the B content in the cells was determined by ICP-AES.
(§2) The […] was 249.772 nm.
(§3) Meanwhile, the BPA was formulated into aqueous solutions of 0.1 mg/g, 0.2 mg/g, 0.4 mg/g, 0.6 mg/g, and 0.8 mg/g, added into U87MG, U251, A375 and HS683 cell lines cultured in 25T petri dishes, respectively, and cultured in a thermostatic incubator for 12 hours. Subsequently, the cells and culture medium were separated, and the number of cells was determined. After the cells were digested with concentrated nitric acid, the B content in the cells was determined by ICP-AES and plotted as shown in FIG. 2.

[3] = tested on: cerebral glioma U87MG cells; experiment: Boron uptake in cells, B content by ICP-AES; type: cell-based; details: 12 hours, FIG. 3
Experimental: as §1, §2, §3

[4] = tested on: U87MG, U251, A549 and A375 cell lines; experiment: Boron uptake in tumor cell lines, B content in cells by ICP-AES; type: cell-based; details: 0.1-0.8 mg/g aqueous solutions, 12 hours incubation, FIG. 1
Experimental: as §1, §2

HS683 cerebral glioma = experiment: Tissue uptake in mouse cerebral glioma model, ICP-MS; type: in vivo, BALB/c mice; details: 500 mg/kg via tail vein, two hours after administration, FIG. 4
Experimental: Healthy BALB/c mice with an average weight of approximately 21 g were selected and inoculated with HS683 cerebral glioma to establish a mouse cerebral glioma model. After 21 days, the mouse cerebral glioma model was generated, and 500 mg/kg of BPA, temozolomide or compound I solution was injected via the tail vein of the mice. After administration, the major tissues and organs (heart, liver, spleen, lungs, kidneys and tumor sites) of the mice were removed at selected time periods (1 hour, 2 hours, and 4 hours). After washing and weighing, the tissues and organs were digested with concentrated nitric acid. The digested tissue sample was diluted and the concentration in the sample was determined by ICP-MS.

Structure (SMILES): N[C@@H](Cc1ccc(B(O)O)cc1)C(=O)O [BPA, ^10B-p-Dicarboxylboronic acid phenylalanine]
uptake by other types of tumor cells [1]: taken up

uptake in the mouse cerebral glioma site compared with BPA (HS683 cerebral glioma): higher than that of BPA
Structure (SMILES): Cn1nnc2c(C(=O)OCc3ccc([B-]45OCC[N+]4(C)CCO5)cc3)ncn2c1=O (stereo not shown) [Compound I]
cellular uptake compared with BPA [2]: significantly higher than BPA | cellular uptake compared with BPA (glioma cell line U251; U251 cells, 12 hours, FIG. 3): significantly higher than BPA | uptake, ranking among cell lines (glioma cell line U251; U251 versus U87MG, A549, A375, within 12 hours): best uptake | cellular uptake compared with BPA [3]: significantly higher than BPA | boron concentration in the cells (B content in every 10^6 cells) [4]: positively correlated with the concentration of the added product
